Results reported in patent US11608383B2, “Bispecific antibody against CD3 and CD20 in combination therapy for treating follicular lymphoma” (GENMAB A/S, priority 2020, dated 2023).

Legend:
follicular lymphoma = settings: double-refractory cases; Salles et al., Haematologica 2017; cited from earlier work
T cells = experiment: T-cell activation with immobilized anti-CD3 in the presence of lenalidomide; assay type: cell-based; settings: lenalidomide 5 or 50 μM with CD3 crosslinking, 3 days, vs no lenalidomide
Protocol: T cells were pre-incubated with assay medium or lenalidomide in the absence or presence of CD3 crosslinking by immobilized anti-CD3 for 3 days (as indicated on the x-axes), after which upregulation of CD69, CD25, PD-1 and LAMP-1 on CD4^+ and CD8^+ T cells was determined by flow cytometry. Data shown are geomean fluorescence intensities (FI) for four donors (each circle represents one condition for one donor). Pre-incubation conditions are shown on the x-axis.
(§1) Briefly, T cells were activated with immobilized anti-CD3 in the presence (5 or 50 μM) or absence of lenalidomide for 3 days. […] T cells that were activated in the presence or absence of lenalidomide were subsequently tested for their cytotoxic capacity in response to epcoritamab.

CD20 = biological target: T1, CD20 (Homo sapiens, UniProt P11836); settings: rituximab versus IgG1-CD20; different epitopes; cited from earlier work
T1 sequence (P11836 1-297): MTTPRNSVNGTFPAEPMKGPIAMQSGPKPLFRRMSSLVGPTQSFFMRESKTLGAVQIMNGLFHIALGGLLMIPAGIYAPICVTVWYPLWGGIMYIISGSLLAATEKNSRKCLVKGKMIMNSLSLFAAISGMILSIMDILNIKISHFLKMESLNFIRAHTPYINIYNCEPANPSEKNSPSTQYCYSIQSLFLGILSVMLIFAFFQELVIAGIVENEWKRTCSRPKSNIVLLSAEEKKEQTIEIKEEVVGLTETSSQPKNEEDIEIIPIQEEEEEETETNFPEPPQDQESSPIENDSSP

[1] = system: CD20-expressing Raji-luc tumor cells; settings: NOD-SCID mice with Raji-luc cells and PBMCs; even with excess IgG1-RTX-FEAR; cited from earlier work
[2] = system: CD20-expressing Daudi cells; experiment: T-cell-mediated cytotoxicity assay with lenalidomide-pre-treated T cells; assay type: cell-based; settings: T cells pre-treated with lenalidomide and anti-CD3; E:T ratio 2:1
Protocol: T cells were incubated with (5 or 50 μM) or without lenalidomide in the absence or presence of immobilized anti-CD3 for 3 days. T cells were then used in a cytotoxicity assay with DuoBody-CD3×CD20 or DuoBody-CD3×ctrl (containing a CD3 arm and a non-binding control arm) and CD20-expressing Daudi cells as target cells (E:T ratio 2:1). Data shown are average percentages cytotoxicity±SD of duplicates, normalized to medium control (no antibody, no lenalidomide).
as §1

[3] = system: primary DLBCL and follicular lymphoma patient biopsies; settings: biopsies taken after administration of an anti-CD20 antibody; cited from earlier work

For `CC[C@H](Nc1ncnc2[nH]cnc12)c1nc2cccc(F)c2c(=O)n1-c1ccccc1` [idelalisib], the “1-year PFS” value (follicular lymphoma) is listed as 43%.
For `Nc1cccc2c1CN(C1CCC(=O)NC1=O)C2=O` (stereo not shown) [lenalidomide, 3-(4-Amino-1-oxo-1,3-dihydro-2H-isoindol-2-yl) piperidine-2,6-dione], the “T-cell activation (upregulation of CD69, CD25; release of granzyme B and IFNγ)” value (T cells) was “increased T-cell activation”.
For “IgG1-CD20: CD20 antibody of which the CD20 arm of epcoritamab is derived (7D8)”, the “Competition for CD20 binding” value (CD20) is given as “compete for CD20 binding”.
In the case of “epcoritamab: IgG1 bispecific CD3×CD20 antibody; heavy/light chain pairs SEQ ID NOs: 24/25 and 26/27; CAS 2134641-34-0”, the “Tumor growth in xenograft model” value [1] is listed as “effectively reduce tumor growth”, the “Activity at lower epcoritamab concentrations” value [2] is listed as “higher activity at lower epcoritamab concentrations” and the Maximum percent cytotoxicity [2] is listed as “Higher maximum percent cytotoxicity”. For the same compound, the “T-cell-mediated cytotoxicity in patient biopsies” value [3] was “induced T-cell-mediated cytotoxicity”.
